The supplement of paper PMC10331698
± gives the standard deviation of the averaged measurements.

How the values were obtained:
Experiment in all cases: level (log10 ratio to DMSO vehicle control); higher = higher biomarker level / cell amount than vehicle control
Perfluoroundecanoic acid = compound: O=C(O)C(F)(F)C(F)(F)C(F)(F)C(F)(F)C(F)(F)C(F)(F)C(F)(F)C(F)(F)C(F)(F)C(F)(F)F [Perfluoroundecanoic acid] (in DMSO); conditions: 6700 nM
Experimental: (§1)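 BioMAP Diversity Plus panel of 12 human primary cell co-culture systems (3C, 4H, LPS, SAg, BT, BF4T, BE3C, CASM3C, HDF3CGF, KF3CT, MyoF, Mphg). Compounds were added 1 h before stimulation and left for 24 h (MyoF 48 h; BT 72 h for soluble read-outs or 6 d for IgG). Biomarkers were read by ELISA, cytotoxicity by SRB, PBMC viability and proliferation by Alamar Blue. Each well value was divided by the mean of 8 DMSO control wells on the same plate and log10 transformed; duplicate blinded samples were tested at 4 concentrations.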

[1] = compound: CO[Si](C)(CCC(F)(F)C(F)(F)C(F)(F)C(F)(F)C(F)(F)C(F)(F)F)OC [Dimethoxymethyl((perfluorohexyl)ethyl)silane] (in DMSO)
Experimental: as §1

[2] = compound: O=S(=O)(O)CCC(F)(F)C(F)(F)C(F)(F)C(F)(F)C(F)(F)C(F)(F)C(F)(F)C(F)(F)F [8:2 Fluorotelomer sulfonic acid] (in DMSO)
Experimental: as §1

[3] = compound: NS(=O)(=O)C(F)(F)C(F)(F)C(F)(F)C(F)(F)C(F)(F)C(F)(F)C(F)(F)C(F)(F)F [Perfluorooctanesulfonamide] (in DMSO)
Experimental: as §1

[4] = compound: O=C(O)C(F)(F)C(F)(F)C(F)(F)OC(F)(F)F [Perfluoro(4-methoxybutanoic) acid] (in DMSO)
Experimental: as §1

[5] = compound: O=S(=O)(O)C(F)(F)C(F)(F)C(F)(F)C(F)(F)C(F)(F)C(F)(F)C(F)(F)F [Perfluoroheptanesulfonic acid] (in DMSO)
Experimental: as §1

[6] = compound: O=C(O)C=C(C(F)(F)F)C(F)(F)F [3,3-Bis(trifluoromethyl)-2-propenoic acid] (in DMSO)
Experimental: as §1

KF3CT:CXCL8/IL-8
level (log10) (Perfluoroundecanoic acid): -0.0315 ± 0.037
level (log10) ([1]; 6700 nM): -0.016 ± 0.0014
level (log10) ([1]; 20000 nM): 0.0035 ± 0.019
level (log10) ([2]; 6700 nM): 0.016 ± 0.038
level (log10) ([2]; 20000 nM): -0.03 ± 0.023
level (log10) ([2]; 60000 nM): -0.131 ± 0.036
level (log10) ([3]; 6700 nM): -0.0135 ± 0.021
level (log10) ([3]; 20000 nM): -0.0525 ± 0.018
level (log10) ([4]; 6700 nM): 0.006 ± 0.017
level (log10) ([4]; 20000 nM): 0.012 ± 0.0085
level (log10) ([4]; 60000 nM): 0.014 ± 0.0099
level (log10) ([5]; 1500 nM): 0.001 ± 0.014
level (log10) ([5]; 4400 nM): -0.0095 ± 0.03
level (log10) ([5]; 13000 nM): 0 ± 0.03
level (log10) ([5]; 40000 nM): 0.0065 ± 0.022
level (log10) ([6]; 6700 nM): -0.004 ± 0.0028
level (log10) ([6]; 20000 nM): 0.0025 ± 0.0092
level (log10) ([6]; 60000 nM): 0.0245 ± 0.016

HDF3CGF:EGFR
level (log10) (Perfluoroundecanoic acid): -0.162 ± 0.0014
level (log10) ([1]; 6700 nM): -0.0055 ± 0.005
level (log10) ([1]; 20000 nM): 0 ± 0.018
level (log10) ([2]; 6700 nM): -0.011 ± 0.033
level (log10) ([2]; 20000 nM): -0.0455 ± 0.03
level (log10) ([2]; 60000 nM): -0.101 ± 0.026
level (log10) ([3]; 6700 nM): -0.016 ± 0.014
level (log10) ([3]; 20000 nM): -0.171 ± 0.016
level (log10) ([4]; 6700 nM): -0.002 ± 0.072
level (log10) ([4]; 20000 nM): 0.02 ± 0.055
level (log10) ([4]; 60000 nM): 0.0015 ± 0.053
level (log10) ([5]; 1500 nM): 0.0085 ± 0.026
level (log10) ([5]; 4400 nM): -0.024 ± 0.059
level (log10) ([5]; 13000 nM): -0.033 ± 0.057
level (log10) ([5]; 40000 nM): 0.0245 ± 0.11
level (log10) ([6]; 6700 nM): -0.02 ± 0.041
level (log10) ([6]; 20000 nM): -0.039 ± 0.05
level (log10) ([6]; 60000 nM): -0.0145 ± 0.0035

CASM3C:CD141/Thrombomodulin
level (log10) (Perfluoroundecanoic acid): -0.06 ± 0.12
level (log10) ([1]; 6700 nM): -0.008 ± 0.0057
level (log10) ([1]; 20000 nM): -0.015 ± 0.021
level (log10) ([2]; 6700 nM): -0.0045 ± 0.029
level (log10) ([2]; 20000 nM): -0.026 ± 0.04
level (log10) ([2]; 60000 nM): -0.0265 ± 0.0035
level (log10) ([3]; 6700 nM): 0 ± 0.0085
level (log10) ([3]; 20000 nM): 0.0505 ± 0.0078
level (log10) ([4]; 6700 nM): 0.001 ± 0.035
level (log10) ([4]; 20000 nM): 0.007 ± 0.035
level (log10) ([4]; 60000 nM): -0.011 ± 0.044
level (log10) ([5]; 1500 nM): 0.019 ± 0.037
level (log10) ([5]; 4400 nM): -0.019 ± 0.028
level (log10) ([5]; 13000 nM): -0.0185 ± 0.022
level (log10) ([5]; 40000 nM): 0.038 ± 0.078
level (log10) ([6]; 6700 nM): 0.03 ± 0.0071
level (log10) ([6]; 20000 nM): 0.0275 ± 0.0064
level (log10) ([6]; 60000 nM): 0.026 ± 0.0028

KF3CT:PAI-I
level (log10) (Perfluoroundecanoic acid): -0.11 ± 0.013
level (log10) ([1]; 6700 nM): 0.0045 ± 0.0064
level (log10) ([1]; 20000 nM): 0.009 ± 0.014
level (log10) ([2]; 6700 nM): -0.0065 ± 0.022
level (log10) ([2]; 20000 nM): -0.029 ± 0.014
level (log10) ([2]; 60000 nM): -0.0255 ± 0.019
level (log10) ([3]; 6700 nM): 0.03 ± 0.027
level (log10) ([3]; 20000 nM): -0.108 ± 0.054
level (log10) ([4]; 6700 nM): -0.0015 ± 0.005
level (log10) ([4]; 20000 nM): -0.0115 ± 0.011
level (log10) ([4]; 60000 nM): -0.004 ± 0.018
level (log10) ([5]; 1500 nM): 0.001 ± 0.028
level (log10) ([5]; 4400 nM): 0.002 ± 0.035
level (log10) ([5]; 13000 nM): -0.01 ± 0.034
level (log10) ([5]; 40000 nM): -0.034 ± 0.0099
level (log10) ([6]; 6700 nM): 0.004 ± 0.013
level (log10) ([6]; 20000 nM): 0.002 ± 0.013
level (log10) ([6]; 60000 nM): -0.0055 ± 0.018

3C:CCL2/MCP-1
level (log10) (Perfluoroundecanoic acid): 0.009 ± 0.0042
level (log10) ([1]; 6700 nM): -0.0005 ± 0.0021
level (log10) ([1]; 20000 nM): 0.012 ± 0.0042
level (log10) ([2]; 6700 nM): -0.01 ± 0.0085
level (log10) ([2]; 20000 nM): -0.0335 ± 0.021
level (log10) ([2]; 60000 nM): -0.0185 ± 0.005
level (log10) ([3]; 6700 nM): -0.0015 ± 0.0021
level (log10) ([3]; 20000 nM): 0.085 ± 0.0057
level (log10) ([4]; 6700 nM): -0.012 ± 0.0028
level (log10) ([4]; 20000 nM): -0.006 ± 0.0028
level (log10) ([4]; 60000 nM): 0.031 ± 0.041
level (log10) ([5]; 1500 nM): -0.0035 ± 0.005
level (log10) ([5]; 4400 nM): -0.0065 ± 0.0021
level (log10) ([5]; 13000 nM): 0.002 ± 0.0014
level (log10) ([5]; 40000 nM): 0.01 ± 0.0014
level (log10) ([6]; 6700 nM): 0.001 ± 0.011
level (log10) ([6]; 20000 nM): -0.0065 ± 0.0064
level (log10) ([6]; 60000 nM): 0.0015 ± 0.037

HDF3CGF:CD54/ICAM-1
level (log10) (Perfluoroundecanoic acid): -0.0765 ± 0.00071
level (log10) ([1]; 6700 nM): -0.013 ± 0.0099
level (log10) ([1]; 20000 nM): -0.0125 ± 0.012
level (log10) ([2]; 6700 nM): -0.012 ± 0.017
level (log10) ([2]; 20000 nM): -0.04 ± 0.011
level (log10) ([2]; 60000 nM): -0.0805 ± 0.012
level (log10) ([3]; 6700 nM): -0.021 ± 0.0042
level (log10) ([3]; 20000 nM): -0.88 ± 0.26
level (log10) ([4]; 6700 nM): -0.0185 ± 0.0078
level (log10) ([4]; 20000 nM): -0.0275 ± 0.0064
level (log10) ([4]; 60000 nM): -0.0215 ± 0.0092
level (log10) ([5]; 1500 nM): 0.0035 ± 0.035
level (log10) ([5]; 4400 nM): -0.007 ± 0.028
level (log10) ([5]; 13000 nM): 0.0075 ± 0.023
level (log10) ([5]; 40000 nM): -0.0165 ± 0.039
level (log10) ([6]; 6700 nM): 0.033 ± 0.035
level (log10) ([6]; 20000 nM): 0.032 ± 0.027
level (log10) ([6]; 60000 nM): 0.0555 ± 0.021

KF3CT:CXCL10/IP-10
level (log10) (Perfluoroundecanoic acid): -0.054 ± 0.017
level (log10) ([1]; 6700 nM): -0.0155 ± 0.0064
level (log10) ([1]; 20000 nM): -0.008 ± 0.0028
level (log10) ([2]; 6700 nM): -0.015 ± 0.0028
level (log10) ([2]; 20000 nM): -0.044 ± 0.0042
level (log10) ([2]; 60000 nM): -0.0495 ± 0.00071
level (log10) ([3]; 6700 nM): -0.021 ± 0.0028
level (log10) ([3]; 20000 nM): -0.205 ± 0.0092
level (log10) ([4]; 6700 nM): 0.002 ± 0.011
level (log10) ([4]; 20000 nM): -0.0025 ± 0.0035
level (log10) ([4]; 60000 nM): 0.006 ± 0.0099
level (log10) ([5]; 1500 nM): 0.006 ± 0.0014
level (log10) ([5]; 4400 nM): -0.0045 ± 0.00071
level (log10) ([5]; 13000 nM): -0.005 ± 0.0042
level (log10) ([5]; 40000 nM): -0.014 ± 0.0028
level (log10) ([6]; 6700 nM): -0.01 ± 0.013
level (log10) ([6]; 20000 nM): -0.027 ± 0.0014
level (log10) ([6]; 60000 nM): -0.0225 ± 0.019

KF3CT:IL-1alpha
level (log10) (Perfluoroundecanoic acid): -0.026 ± 0.011
level (log10) ([1]; 6700 nM): -0.032 ± 0.024
level (log10) ([1]; 20000 nM): -0.0065 ± 0.032
level (log10) ([2]; 6700 nM): -0.041 ± 0.027
level (log10) ([2]; 20000 nM): -0.137 ± 0.033
level (log10) ([2]; 60000 nM): -0.0655 ± 0.046
level (log10) ([3]; 6700 nM): 0.074 ± 0.0042
level (log10) ([3]; 20000 nM): -0.056 ± 0.02
level (log10) ([4]; 6700 nM): -0.003 ± 0.0099
level (log10) ([4]; 20000 nM): -0.015 ± 0.027
level (log10) ([4]; 60000 nM): 0 ± 0.021
level (log10) ([5]; 1500 nM): -0.0015 ± 0.0035
level (log10) ([5]; 4400 nM): 0.013 ± 0.0071
level (log10) ([5]; 13000 nM): 0 ± 0.0028
level (log10) ([5]; 40000 nM): 0.0095 ± 0.013
level (log10) ([6]; 6700 nM): -0.001 ± 0.0057
level (log10) ([6]; 20000 nM): -0.016 ± 0.016
level (log10) ([6]; 60000 nM): -0.0185 ± 0.032
